Experimental data reported in the METLIN SMRT retention time set (Domingo-Almenara et al. 2019).

test: gradient 5% acetonitrile 3 min, to 50% in 2 min, to 85% in 15 min, held 3 min, 100 µL/min; conditions: column: Zorbax Extend-C18 2.1 x 50 mm; eluents: water / acetonitrile, 0.1% formic acid
How it was run: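 Pure standards were run in mixtures of ~100 molecules by HPLC coupled to a quadrupole time-of-flight mass spectrometer. The column was a Zorbax Extend-C18 (2.1 × 50 mm, 1.8 μm) at 100 μL/min, with water and acetonitrile each containing 0.1% formic acid, in positive and negative ionization mode. Dead and dwell volumes were 40 μL and 900 μL. Retention time was taken from computationally picked adduct peaks, each manually inspected, with data collected over 3 months.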

SMILES | RP-LC retention time [s]
Cc1noc([C@@H]2CC(F)(F)CN2C(=O)c2nccn2C)n1 | 701
CN1CCN(CCc2ccc(Cl)c(Cl)c2)CC1 | 668
CN1CCCC2C(c3ccccc3)C(C3=NCCCC3)C(c3ccccc3)CC21 (stereo unspecified) | 589
CSc1nc2ccc(NC(=O)c3cccs3)cc2s1 | 837
Cc1ccc(CN2CCC(C3CCN(S(C)(=O)=O)CC3)C2)nc1 (stereo unspecified) | 580
O=C(c1ccc2c(c1)OCO2)N(c1ccc(Br)cc1)C1C=CS(=O)(=O)C1 (stereo unspecified) | 779
Cc1nc2cc(-c3noc(COc4ccccc4C)n3)ccc2o1 | 1100
O=C(NCCN1CCOCC1)C1CC(=O)N(CCc2c[nH]c3ccc(Cl)cc23)C1 (stereo unspecified) | 604
O=C1CCN(C2OC(CO)C(O)C2O)C(=O)N1 (stereo unspecified) | 1040
Cc1cc(C)cc(NS(=O)(=O)c2c(C)sc(C)c2-c2cc(C)[nH]n2)c1 | 1100
CC(C)n1cnnc1-c1nn(C)c2c1CN(C(=O)CC1CCCC1)CC2 | 732
O=c1ccc(-c2ccc3c(c2)OCO3)nn1Cc1nc(-c2ccccc2)no1 | 939
CCOc1ccc(-n2c(=O)c3sccc3n(Cc3nc(-c4ccccc4OCC)no3)c2=O)cc1 | 1020
NS(=O)(=O)c1ccc(CCNS(=O)(=O)c2cccc(-c3nc(-c4ccccc4)no3)c2)cc1 | 952
CCc1nnc(NS(=O)(=O)c2ccc(N)cc2)s1 | 711
Cc1cc(C)cc(N2C(=O)N(CC(=O)N3CCOc4ccc(C)cc43)C3CS(=O)(=O)CC32)c1 (stereo unspecified) | 962
COCCn1cnc2c(-c3ccccc3)cn(CC(=O)NC3CCCC3)c2c1=O | 837
COc1ccc(CCNC(=O)CSc2ncnc3c2nnn3C)cc1OC | 628
CN(C(=O)Cc1ccccc1)[C@H](CN1CCCC1)c1ccccc1 | 726

SMILES | RP-LC retention time [s]
Cc1cc(C)c(S(=O)(=O)N2CCc3c(c(-c4nnc(-c5ccc(F)cc5)o4)nn3C)C2)cc1C | 1090
CCOc1ccc(C(=O)N2CCC3(C2)C(=O)N(C)c2ccc(OC)cc23)cc1 (stereo unspecified) | 788
O=C(c1ccccc1)N1C[C@@H]2C[C@H]1C[C@@H]2NS(=O)(=O)c1cccnc1 | 630
O=C(CN1CCN(c2ccc(F)cc2)C1=O)NCCCN1CCCC1=O | 611
CCc1nc2cc(-c3noc(-c4cccs4)n3)ccc2o1 | 1080
OC[C@H]1O[C@@H](n2cnc3c(NC4CCCCC4)ncnc32)C(O)[C@H]1O (stereo partly specified) | 583
CCN1CCN(CC2CCN(S(=O)(=O)Cc3c(F)cccc3Cl)CC2)CC1 | 611
CC1Oc2ccc(-c3csc(NS(C)(=O)=O)n3)cc2NC1=O (stereo unspecified) | 609
O=C(CCc1nnc2c3cc(-c4ccccc4)nn3ccn12)N1CCN(C2CCCCC2)CC1 | 628
CC1CCN(S(=O)(=O)c2nn(C)cc2C(=O)O)CC1 | 707
CC(C)c1ccc2oc3nc(N)c(C(=O)O)cc3c(=O)c2c1 | 891
COc1ccc(NC2CS(=O)(=O)CC2O)cc1 (stereo unspecified) | 592
CC1=C(c2ccc(C)c(C)c2)S(=O)(=O)N=C1N1CCCN(C(=O)C2CCCO2)CC1 (stereo unspecified) | 790
COCCCNc1c(-c2cccc(F)c2)nc2sc(C(=O)N(C)C)c(C)n12 | 776
O=C(NCc1ccccc1Cl)C(=O)c1c[nH]c2ccccc12 | 936
CN1C(=O)C2CCCCN2c2ccc(C(=O)NCCCN3CCCCCC3)cc21 (stereo unspecified) | 627
Cc1cnn(CC(=O)N2CC(F)(F)C[C@H]2c2nc(C3CC3)no2)c1 | 703
Cn1c(=O)c2nc(SCCC(=O)Nc3ccc(F)cc3)n(C)c2n(C)c1=O | 690
COc1nc2c(c(C)nn2-c2ccccc2)c(C)c1CCC(=O)NCCc1c[nH]c2ccccc12 | 1130

SMILES | RP-LC retention time [s]
Oc1cc(-n2cccn2)c(O)cc1-n1cccn1 | 868
Cc1nnc2ccc(-c3noc(Cc4ccccc4Cl)n3)cn12 | 852
CCCN1CCC[C@@H](c2cccc(O)c2)C1 | 596
CC(C)NC(=O)C1CC(=O)N(CCc2c[nH]c3ccc(Cl)cc23)C1 (stereo unspecified) | 731
COc1ccc(-c2nc(Nc3cnc(SC)nc3)sc2C)cc1 | 1050
Oc1ccc2c3c1O[C@H]1c4oc5ccccc5c4C[C@@]4(O)C(C2)N(CC2CC2)CCC314 (stereo partly specified) | 702
CC(=O)C1CC[C@H]2[C@@H]3CC[C@@H]4CC(=O)CC[C@]4(C)[C@H]3CC[C@]12C (stereo partly specified) | 1050
CCCc1cc(NCc2ccccn2)n2ncc(-c3ccccc3)c2n1 | 894
CCC(=O)Nc1nc(-c2ccccc2)cs1 | 836
CCn1cnc2ccc(-c3noc(-c4ccc(OC)cc4C)n3)cc21 | 741
CCOc1ccc(CNC(=O)Cc2cn(C)c3ncccc23)cc1 | 698
CN(C)c1cccc(C(=O)N2CCC3(CC2)N=C(c2ccccc2)NO3)c1 | 717
Cc1ccsc1C(=O)NCc1ccc2c(c1)ncn2C(C)C | 616
COc1ccc(-c2nn3c(-c4cc(C(C)C)[nH]n4)nnc3s2)c(OC)c1 | 915
COCC(C)(O)CNC(=O)Nc1cccs1 (stereo unspecified) | 594
COc1ccc(-n2cc(C(=O)Nc3ccc(SC)cc3)nn2)cc1 | 966
Nc1nc(SCC(=O)Nc2ccc(F)c(Cl)c2)n[nH]1 | 621
COc1c(C(=O)NC(C)C)sc2ccc(Cl)cc12 | 1060
COc1ccc(-n2nc(C(F)(F)F)cc2-c2ccc(Cl)cc2)cc1 | 1250

Further lines, results first:

RP-LC retention time [s] | SMILES
1030 | O=C(COc1ccccc1[N+](=O)[O-])Nc1nc2c(s1)CCc1ccccc1-2
852 | CCOc1ccc2c(n1)CCN(C(=O)Nc1ccc(C)cc1C)C2
855 | CCc1ccccc1NS(=O)(=O)c1cc(-c2c(CC)noc2NC(C)=O)ccc1C
681 | O=C(Nc1ccc(F)cc1F)N1CCC(N2CCN(Cc3ccccc3)C(=O)C2=O)CC1
911 | O=C(c1csc(Nc2ccccc2)n1)N1CCN(c2ccccc2F)CC1
655 | COc1ccc(CNC(=O)Cn2cnc3nc(N4CCCC(C(=O)NC5CC5)C4)sc3c2=O)cc1 (stereo unspecified)
674 | CCC1CCCCN1C(=O)c1cnc2nc(C)ccc2c1Nc1ccc(C)cc1 (stereo unspecified)
842 | CC(C)(C)c1ccc2oc(CN3CCN(C(=O)NCc4ccccc4)CC3)nc2c1
877 | CN(C)S(=O)(=O)c1ccc2c(c1)N(CC(=O)Nc1ccc3c(c1)OCO3)C(=O)C1CCCCN21 (stereo unspecified)
840 | COc1cccc(S(=O)(=O)N2C[C@@H]3C[C@H]2C[C@@H]3NC(=O)c2ccccc2)c1
1280 | O=C(COc1ccccc1Cl)Nc1ccc(-c2nc(-c3ccccc3)no2)cc1
1180 | Cc1cccc(-c2noc(-c3nn(CC(=O)NC4CCCC4)c4ccccc34)n2)c1
715 | COc1cc(-c2nc3ncccn3c2Nc2cccc(Cl)c2C)ccc1O
1400 | Cc1c(-c2ccnc(N3CCCCC3)n2)cnc2nc(-c3ccc(Cl)cc3)nn12
892 | CCc1nc2onc(C)c2c(=O)n1CC(=O)NC1CCCc2ccccc21 (stereo unspecified)
744 | N#Cc1ccccc1NC(=O)C(=O)NCC1CCN(C(=O)c2ccccc2F)CC1
763 | CSc1ccc(CNC(=O)C2CCCN(c3nccc(C)n3)C2)cc1 (stereo unspecified)

RP-LC retention time [s] | SMILES
657 | O=C(Nc1ccccc1C(F)(F)F)N1CCC(n2cnc3cccnc32)CC1
756 | COc1ccc(Br)cc1CNC(=O)CN1C(=O)CSc2ncccc21
1360 | O=C(Nc1ccc(Br)cc1F)C1CCCN(c2nc3ccccc3nc2C(F)(F)F)C1 (stereo unspecified)
650 | CCCNC(=O)C1CCCN(c2ccc(SCC(=O)Nc3c(C)cccc3CC)nn2)C1 (stereo unspecified)
608 | CCOC(=O)CNC(=O)Cn1c(-c2cccnc2)nc2ccccc21
719 | CCCC(NC(=O)c1cc(OC)cc(OC)c1)C(=O)Nc1nc2ccccc2[nH]1 (stereo unspecified)
696 | CN(CCCNC(=O)C1CCCN(S(=O)(=O)c2ccc3c(ccn3C)c2)C1)Cc1ccccc1 (stereo unspecified)
1120 | O=c1c2ccccc2n(Cc2nc(-c3ccc(Br)cc3)no2)c(=O)n1CC1CCCO1 (stereo unspecified)
952 | Cc1ccc(NC(=O)N2CCc3nc(-c4ccccc4)ncc3C2)c(C)c1
638 | Cc1nn2c(CNC(=O)c3ccccc3C(F)(F)F)c(C)nc2s1
809 | O=C(N[C@H]1C[C@@H]2C[C@H]1CN2C(=O)c1cccc(C(F)(F)F)c1)c1ccccc1
785 | COCc1cc2nn(CC(=O)NC3CCCCC3)c(=O)n2c(-c2ccccc2)n1
843 | O=C(Cn1nc2c(cc1=O)CCCCC2)NCCc1nc(-c2ccccc2)cs1
688 | CC(=O)Nc1ccc(-n2cnc(C(=O)N3CCN(c4ccc(F)cc4)CC3)c2)nc1
837 | O=S(=O)(Cc1ccccc1F)N1CCC[C@H]1c1nc(-c2ccc(F)cc2)n[nH]1
580 | CN1CCN(S(=O)(=O)c2ccc(Cl)c3ccccc23)CC1
594 | COc1ccc(N2CCN(C(=O)C3CC(=O)N(c4ccc(C)c(C)c4)C3)CC2)nn1 (stereo unspecified)
